How the values were obtained:
NCI-H23 = test: NCI-60 anticancer screen (SRB; single dose and five doses); conditions: Homo sapiens, NCI-H23, 48 h, read-out: Growth Percentage
HCT-116 = test: as above; conditions: Homo sapiens, HCT-116, 48 h, read-out: Growth Percentage
OVCAR-8 = test: as above; conditions: Homo sapiens, OVCAR-8, 48 h, read-out: Growth Percentage
NCI/ADR-RES = test: as above; conditions: Homo sapiens, 48 h, read-out: Growth Percentage
HS 578T = test: as above; conditions: Homo sapiens, 48 h, read-out: Growth Percentage
SF-539 = test: as above; conditions: Homo sapiens, SF-539, 48 h, read-out: Growth Percentage
UO-31 = test: as above; conditions: Homo sapiens, UO-31, 48 h, read-out: Growth Percentage
OVCAR-4 = test: as above; conditions: Homo sapiens, OVCAR-4, 48 h, read-out: Growth Percentage
OVCAR-5 = test: as above; conditions: Homo sapiens, OVCAR-5, 48 h, read-out: Growth Percentage
CCRF-CEM = test: NCI-60 anticancer screen (SRB; single dose 10 μM and five doses); conditions: Homo sapiens, 48 h, read-out: Growth Percentage
CAKI-1 = test: NCI-60 anticancer screen (SRB; single dose and five doses); conditions: Homo sapiens, CAKI-1, 48 h, read-out: Growth Percentage
HCC-2998 = test: as above; conditions: Homo sapiens, HCC 2998, 48 h, read-out: Growth Percentage
MDA-MB-231/ATCC = test: as above; conditions: Homo sapiens, MDA-MB-231, 48 h, read-out: Growth Percentage
EKVX = test: as above; conditions: Homo sapiens, 48 h, read-out: Growth Percentage
IGROV1 = test: as above; conditions: Homo sapiens, IGROV-1, 48 h, read-out: Growth Percentage
DU-145 = test: as above; conditions: Homo sapiens, DU-145, 48 h, read-out: Growth Percentage
KM12 = test: as above; conditions: Homo sapiens, KM12, 48 h, read-out: Growth Percentage
SK-MEL-5 = test: as above; conditions: Homo sapiens, SK-MEL-5, 48 h, read-out: Growth Percentage
MCF7 = test: as above; conditions: Homo sapiens, MCF7, 48 h, read-out: Growth Percentage
LOX IMVI = test: as above; conditions: Homo sapiens, 48 h, read-out: Growth Percentage
SNB-19 = test: cells; conditions: Homo sapiens, SNB-19, 48 h, read-out: Growth Percentage
TK-10 = test: NCI-60 anticancer screen (SRB; single dose and five doses); conditions: Homo sapiens, TK-10, 48 h, read-out: Growth Percentage
SF-295 = test: as above; conditions: Homo sapiens, SF-295, 48 h, read-out: Growth Percentage
SR = test: as above; conditions: Homo sapiens, 48 h, read-out: Growth Percentage
HT29 = test: as above; conditions: Homo sapiens, HT-29, 48 h, read-out: Growth Percentage
RPMI-8226 = test: as above; conditions: Homo sapiens, RPMI-8226, 48 h, read-out: Growth Percentage
MDA-MB-435 = test: as above; conditions: Homo sapiens, MDA-MB-435, 48 h, read-out: Growth Percentage
SK-OV-3 = test: as above; conditions: Homo sapiens, SK-OV-3, 48 h, read-out: Growth Percentage
HOP-62 = test: as above; conditions: Homo sapiens, HOP-62, 48 h, read-out: Growth Percentage

SMILES | activity at 10 µM (NCI-H23) | activity at 10 µM (HCT-116) | activity at 10 µM (OVCAR-8) | activity at 10 µM (NCI/ADR-RES) | activity at 10 µM (HS 578T) | activity at 10 µM (SF-539) | activity at 10 µM (OVCAR-4) | activity at 10 µM (OVCAR-5) | activity at 10 µM (CCRF-CEM) | activity at 10 µM (CAKI-1) | activity at 10 µM (HCC-2998) | activity at 10 µM (MDA-MB-231/ATCC) | activity at 10 µM (EKVX) | activity at 10 µM (DU-145) | activity at 10 µM (KM12) | activity at 10 µM (SK-MEL-5) | activity at 10 µM (MCF7) | activity at 10 µM (LOX IMVI) | activity at 10 µM (SNB-19) | activity at 10 µM (TK-10) | also measured
Cc1[nH]c(=S)sc1C(=O)/C=C/c1ccccc1 [2a, (E)-1-(4-Methyl-2-Thioxo-2,3-Dihydrothiazol-5-yl)-3-Phenylprop-2-En-1-One] | 77.5% | 49.4% | 65.8% | 64.8% | 90.1% | 41.7% | 76.4% | 129% | 37.2% | 52.5% | 91.3% | 70% | 73.1% | 27.9% | 29% | 68.8% | 19.8% | 31.1% | 66.8% | 80.3% | activity at 10 µM (UO-31): 39.3%; activity at 10 µM (IGROV1): 81.8%; activity at 10 µM (SF-295): 88.9%; activity at 10 µM (SR): 32.4%; activity at 10 µM (HT29): 99.7%; activity at 10 µM (RPMI-8226): 14.1%; activity at 10 µM (MDA-MB-435): 50.1%
COc1ccc(/C=C/C(=O)c2sc(=S)[nH]c2C)c(OC)c1 [2n, (E)-3-(2,4-Dimethoxyphenyl)-1-(4-Methyl-2-Thioxo-2,3-Dihydrothiazol-5-yl)Prop-2-En-1-One] | 72.9% | 62.3% | 81.5% | 48% | 89.5% | 87.3% | 52% | 120% | 53.7% | 82.8% | 80.7% | 98.7% | 56.2% | 86.9% | 73.4% | 37.8% | 46% | 57.8% | 77.4% | 94.1% | activity at 10 µM (SK-OV-3): 101%; activity at 10 µM (SF-295): 72.5%; activity at 10 µM (HOP-62): 88.8%; activity at 10 µM (HT29): 115%; activity at 10 µM (RPMI-8226): 35.6%; activity at 10 µM (MDA-MB-435): 84.7%
COc1ccc(/C=C/C(=O)c2sc(=S)[nH]c2C)cc1 [2l, (E)-3-(4-Methoxyphenyl)-1-(4-Methyl-2-Thioxo-2,3-Dihydrothiazol-5-yl)Prop-2-En-1-One] | 81.8% | 76% | 76.9% | 76.4% | 96.5% | 69.8% | 72.3% | 145% | 59% | 59% | 101% | 89.3% | 84.8% | 58.5% | 42.2% | 55.9% | 30.8% | 44.2% | 75.6% | 80.9% | activity at 10 µM (UO-31): 49%; activity at 10 µM (IGROV1): 89.1%; activity at 10 µM (SF-295): 83.5%; activity at 10 µM (SR): 43.7%; activity at 10 µM (HT29): 96.8%; activity at 10 µM (RPMI-8226): 19.6%; activity at 10 µM (MDA-MB-435): 63.9%
